Assay results published in US7442541B2, “β-glucan-containing fat and oil composition and novel microorganism capable of producing β-glucan” (Adeka Corporation, priority 2002, dated 2008).

Columns and labels:
Assay in all cases: Cycloheximide resistance test
[1] = system: ADK-10; format: cell-based; settings: strain ADK-10, YM agar, 26° C., 10 days
Description: (§1) The strains obtained by the screening in Test Examples 1 and 2 and IFO-4466, IFO-6353, and IFO-7757 purchased from Institute for Fermentation, Osaka, i.e., were tested for cycloheximide resistance as follows. Each strain was grown on YM agar medium (Difco) at 26° C. for 5 days. YM agar media (Difco) containing 5, 10, 20, 40, and 80 μg/ml of cycloheximide were prepared. The grown strain was inoculated into each of the cycloheximide-containing media using a sterile toothpick and incubated at 26° C. for 10 days. The plates were examined for colonies. The diameters of the colonies, if formed, were measured.

[2] = system: ADK-17; format: cell-based; settings: strain ADK-17, YM agar, 26° C., 10 days
Description: as §1

[3] = system: ADK-1; format: cell-based; settings: strain ADK-1, YM agar, 26° C., 10 days
Description: as §1

[4] = system: ADK-20; format: cell-based; settings: strain ADK-20, YM agar, 26° C., 10 days
Description: as §1

[5] = system: ADK-24; format: cell-based; settings: strain ADK-24, YM agar, 26° C., 10 days
Description: as §1

[6] = system: ADK-27; format: cell-based; settings: strain ADK-27, YM agar, 26° C., 10 days
Description: as §1

[7] = system: ADK-28; format: cell-based; settings: strain ADK-28, YM agar, 26° C., 10 days
Description: as §1

[8] = system: ADK-31; format: cell-based; settings: strain ADK-31, YM agar, 26° C., 10 days
Description: as §1

[9] = system: ADK-42; format: cell-based; settings: strain ADK-42, YM agar, 26° C., 10 days
Description: as §1

[10] = system: ADK-4; format: cell-based; settings: strain ADK-4, YM agar, 26° C., 10 days
Description: as §1

[11] = system: ADK-5; format: cell-based; settings: strain ADK-5, YM agar, 26° C., 10 days
Description: as §1

[12] = system: ADK-6; format: cell-based; settings: strain ADK-6, YM agar, 26° C., 10 days
Description: as §1

[13] = system: ADK-8; format: cell-based; settings: strain ADK-8, YM agar, 26° C., 10 days
Description: as §1

[14] = system: ADK-71; format: cell-based, Aureobasidium pullulans; settings: strain ADK-71, YM agar, 26° C., 10 days
Description: as §1

[15] = system: ADK-77; format: cell-based, Aureobasidium pullulans; settings: strain ADK-77, YM agar, 26° C., 10 days
Description: as §1

[16] = system: ADK-82; format: cell-based, Aureobasidium pullulans; settings: strain ADK-82, YM agar, 26° C., 10 days
Description: as §1

[17] = system: IFO-6353; format: cell-based, Aureobasidium pullulans; settings: strain IFO-6353, YM agar, 26° C., 10 days
Description: as §1

[18] = system: IFO-7757; format: cell-based, Aureobasidium pullulans; settings: strain IFO-7757, YM agar, 26° C., 10 days
Description: as §1

## C[C@@H]1C[C@@H]([C@H](O)CC2CC(=O)NC(=O)C2)C(=O)[C@@H](C)C1 [Cycloheximide, cycloheximide]
[1]; cycloheximide 5 μg/ml
  Colony diameter: 8.5 mm
[1]; cycloheximide 10 μg/ml
  Colony diameter: 0 mm
[1]; cycloheximide 20 μg/ml
  Colony diameter: 0 mm
[1]; cycloheximide 40 μg/ml
  Colony diameter: 0 mm
[1]; cycloheximide 80 μg/ml
  Colony diameter: 0 mm
[2]; cycloheximide 5 μg/ml
  Colony diameter: 6.7 mm
[2]; cycloheximide 10 μg/ml
  Colony diameter: 0 mm
[2]; cycloheximide 20 μg/ml
  Colony diameter: 0 mm
[2]; cycloheximide 40 μg/ml
  Colony diameter: 0 mm
[2]; cycloheximide 80 μg/ml
  Colony diameter: 0 mm
[3]; cycloheximide 5 μg/ml
  Colony diameter: 0 mm
[3]; cycloheximide 10 μg/ml
  Colony diameter: 0 mm
[3]; cycloheximide 20 μg/ml
  Colony diameter: 0 mm
[3]; cycloheximide 40 μg/ml
  Colony diameter: 0 mm
[3]; cycloheximide 80 μg/ml
  Colony diameter: 0 mm
[4]; cycloheximide 5 μg/ml
  Colony diameter: 6.2 mm
[4]; cycloheximide 10 μg/ml
  Colony diameter: 0 mm
[4]; cycloheximide 20 μg/ml
  Colony diameter: 0 mm
[4]; cycloheximide 40 μg/ml
  Colony diameter: 0 mm
[4]; cycloheximide 80 μg/ml
  Colony diameter: 0 mm
[5]; cycloheximide 5 μg/ml
  Colony diameter: 9.1 mm
[5]; cycloheximide 10 μg/ml
  Colony diameter: 2.5 mm
[5]; cycloheximide 20 μg/ml
  Colony diameter: 0 mm
[5]; cycloheximide 40 μg/ml
  Colony diameter: 0 mm
[5]; cycloheximide 80 μg/ml
  Colony diameter: 0 mm
[6]; cycloheximide 5 μg/ml
  Colony diameter: 10.3 mm
[6]; cycloheximide 10 μg/ml
  Colony diameter: 0 mm
[6]; cycloheximide 20 μg/ml
  Colony diameter: 0 mm
[6]; cycloheximide 40 μg/ml
  Colony diameter: 0 mm
[6]; cycloheximide 80 μg/ml
  Colony diameter: 0 mm
[7]; cycloheximide 5 μg/ml
  Colony diameter: 7.1 mm
[7]; cycloheximide 10 μg/ml
  Colony diameter: 0 mm
[7]; cycloheximide 20 μg/ml
  Colony diameter: 0 mm
[7]; cycloheximide 40 μg/ml
  Colony diameter: 0 mm
[7]; cycloheximide 80 μg/ml
  Colony diameter: 0 mm
[8]; cycloheximide 5 μg/ml
  Colony diameter: 6.3 mm
[8]; cycloheximide 10 μg/ml
  Colony diameter: 1.7 mm
[8]; cycloheximide 20 μg/ml
  Colony diameter: 0 mm
[8]; cycloheximide 40 μg/ml
  Colony diameter: 0 mm
[8]; cycloheximide 80 μg/ml
  Colony diameter: 0 mm
[9]; cycloheximide 5 μg/ml
  Colony diameter: 2.4 mm
[9]; cycloheximide 10 μg/ml
  Colony diameter: 0 mm
[9]; cycloheximide 20 μg/ml
  Colony diameter: 0 mm
[9]; cycloheximide 40 μg/ml
  Colony diameter: 0 mm
[9]; cycloheximide 80 μg/ml
  Colony diameter: 0 mm
[10]; cycloheximide 5 μg/ml
  Colony diameter: 8.5 mm
[10]; cycloheximide 10 μg/ml
  Colony diameter: 0 mm
[10]; cycloheximide 20 μg/ml
  Colony diameter: 0 mm
[10]; cycloheximide 40 μg/ml
  Colony diameter: 0 mm
[10]; cycloheximide 80 μg/ml
  Colony diameter: 0 mm
[11]; cycloheximide 5 μg/ml
  Colony diameter: 6.3 mm
[11]; cycloheximide 10 μg/ml
  Colony diameter: 0 mm
[11]; cycloheximide 20 μg/ml
  Colony diameter: 0 mm
[11]; cycloheximide 40 μg/ml
  Colony diameter: 0 mm
[11]; cycloheximide 80 μg/ml
  Colony diameter: 0 mm
[12]; cycloheximide 5 μg/ml
  Colony diameter: 7.1 mm
[12]; cycloheximide 10 μg/ml
  Colony diameter: 0 mm
[12]; cycloheximide 20 μg/ml
  Colony diameter: 0 mm
[12]; cycloheximide 40 μg/ml
  Colony diameter: 0 mm
[12]; cycloheximide 80 μg/ml
  Colony diameter: 0 mm
[13]; cycloheximide 5 μg/ml
  Colony diameter: 7.7 mm
[13]; cycloheximide 10 μg/ml
  Colony diameter: 1.1 mm
[13]; cycloheximide 20 μg/ml
  Colony diameter: 0 mm
[13]; cycloheximide 40 μg/ml
  Colony diameter: 0 mm
[13]; cycloheximide 80 μg/ml
  Colony diameter: 0 mm
[14]; cycloheximide 5 μg/ml
  Colony diameter: 7.6 mm
[14]; cycloheximide 10 μg/ml
  Colony diameter: 4.1 mm
[14]; cycloheximide 20 μg/ml
  Colony diameter: 1.8 mm
[14]; cycloheximide 40 μg/ml
  Colony diameter: 1.2 mm
[14]; cycloheximide 80 μg/ml
  Colony diameter: 0 mm
[15]; cycloheximide 5 μg/ml
  Colony diameter: 9.5 mm
[15]; cycloheximide 10 μg/ml
  Colony diameter: 4.1 mm
[15]; cycloheximide 20 μg/ml
  Colony diameter: 0.8 mm
[15]; cycloheximide 40 μg/ml
  Colony diameter: 0 mm
[15]; cycloheximide 80 μg/ml
  Colony diameter: 0 mm
[16]; cycloheximide 5 μg/ml
  Colony diameter: 10.4 mm
[16]; cycloheximide 10 μg/ml
  Colony diameter: 2.9 mm
[16]; cycloheximide 20 μg/ml
  Colony diameter: 1.5 mm
[16]; cycloheximide 40 μg/ml
  Colony diameter: 1.2 mm
[16]; cycloheximide 80 μg/ml
  Colony diameter: 0 mm
[17]; cycloheximide 5 μg/ml
  Colony diameter: 7.3 mm
[17]; cycloheximide 10 μg/ml
  Colony diameter: 2.3 mm
[17]; cycloheximide 20 μg/ml
  Colony diameter: 0 mm
[17]; cycloheximide 40 μg/ml
  Colony diameter: 0 mm
[17]; cycloheximide 80 μg/ml
  Colony diameter: 0 mm
[18]; cycloheximide 5 μg/ml
  Colony diameter: 0 mm
[18]; cycloheximide 10 μg/ml
  Colony diameter: 0 mm
[18]; cycloheximide 20 μg/ml
  Colony diameter: 0 mm
[18]; cycloheximide 40 μg/ml
  Colony diameter: 0 mm
[18]; cycloheximide 80 μg/ml
  Colony diameter: 0 mm
